In PubChem BioAssay AID1963845 (Molecular Pharmacology Branch, DTP, NCI, 2024) one finds viability, T/C data, which are given here for five compounds.
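Note: luminescence signal used as surrogate measure of viable cells; spheroids exposed to compounds for seven days before readout; 100% = DMSO vehicle control viability as luminescence relative to vehicle.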

In one assay the test system is 429239-143-T-J1-PDC complex spheroid viability. The assay is described as follows: Anticancer human tumor 429239-143-T-J1-PDC patient-derived small cell lung carcinoma cell line growth inhibition [POLQ]. The settings on record: second compound 3.16 µM; first compound 0.1 µM; hits give low values. In short, it runs like this: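 Patient-derived tumour cells were co-cultured with HUVEC and mesenchymal stem cells as multicellular spheroids at 37 °C. They were treated with POLQ inhibitors (novobiocin, ART-558, RP6685) alone or combined with other agents. Top concentrations were at or near clinical Cmax (otherwise 10 microM; SN-38 at 1 microM), decreasing in half-log steps.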
With `CCc1cc2c(N3CCc4c(cc(Cn5ccnc5)cc4-c4cn(C)nc4C(F)(F)F)C3=O)cc(C)nc2c(OC)n1` + Nc1ccc(C#CCN(C(=O)Cc2ncc(C(F)(F)F)cc2C(F)(F)F)c2ccc(F)cc2)nn1, the viability, T/C is 110%.

`COc1cc2cc(C(=O)CCC(=O)O)sc2cc1OC` + Nc1ccc(C#CCN(C(=O)Cc2ncc(C(F)(F)F)cc2C(F)(F)F)c2ccc(F)cc2)nn1: the viability, T/C is 107%.

`O=C(Nc1ccc(O)c(NS(=O)(=O)c2ccc(F)cc2)c1)c1ccc(-c2ccccc2)cc1` + Nc1ccc(C#CCN(C(=O)Cc2ncc(C(F)(F)F)cc2C(F)(F)F)c2ccc(F)cc2)nn1: the viability, T/C is 103%.

The assay is the same for the next values; noted with them: second compound 3.16 µM; first compound 0.316 µM; hits give low values.
For `C#Cc1c(F)ccc2cc(O)cc(-c3ncc4c(N5CC6CCC(C5)N6)nc(OCC56CCCN5CC(F)C6)nc4c3F)c12` (stereo unspecified) + Nc1ccc(C#CCN(C(=O)Cc2ncc(C(F)(F)F)cc2C(F)(F)F)c2ccc(F)cc2)nn1, the viability, T/C was 106%.

For the compound `CC1COCCN1c1cc(C2(O)CC3CCC(C2)O3)c2cnn(-c3ccn[nH]3)c2n1` (stereo unspecified) + Nc1ccc(C#CCN(C(=O)Cc2ncc(C(F)(F)F)cc2C(F)(F)F)c2ccc(F)cc2)nn1, the viability, T/C is 43.1%.

With `CCc1cc2c(N3CCc4c(cc(Cn5ccnc5)cc4-c4cn(C)nc4C(F)(F)F)C3=O)cc(C)nc2c(OC)n1` + Nc1ccc(C#CCN(C(=O)Cc2ncc(C(F)(F)F)cc2C(F)(F)F)c2ccc(F)cc2)nn1, the viability, T/C was 88.7%.

As for `COc1cc2cc(C(=O)CCC(=O)O)sc2cc1OC` + Nc1ccc(C#CCN(C(=O)Cc2ncc(C(F)(F)F)cc2C(F)(F)F)c2ccc(F)cc2)nn1, the viability, T/C is 103%.

`O=C(Nc1ccc(O)c(NS(=O)(=O)c2ccc(F)cc2)c1)c1ccc(-c2ccccc2)cc1` + Nc1ccc(C#CCN(C(=O)Cc2ncc(C(F)(F)F)cc2C(F)(F)F)c2ccc(F)cc2)nn1: the viability, T/C was 103%.

Staying with this assay, now noted: second compound 3.16 µM; first compound 1 µM; hits give low values.
Regarding `C#Cc1c(F)ccc2cc(O)cc(-c3ncc4c(N5CC6CCC(C5)N6)nc(OCC56CCCN5CC(F)C6)nc4c3F)c12` (stereo unspecified) + Nc1ccc(C#CCN(C(=O)Cc2ncc(C(F)(F)F)cc2C(F)(F)F)c2ccc(F)cc2)nn1, the viability, T/C is 93.8%.

On to `CC1COCCN1c1cc(C2(O)CC3CCC(C2)O3)c2cnn(-c3ccn[nH]3)c2n1` (stereo unspecified) + Nc1ccc(C#CCN(C(=O)Cc2ncc(C(F)(F)F)cc2C(F)(F)F)c2ccc(F)cc2)nn1, for which the viability, T/C was 7.77%.

For the compound `CCc1cc2c(N3CCc4c(cc(Cn5ccnc5)cc4-c4cn(C)nc4C(F)(F)F)C3=O)cc(C)nc2c(OC)n1` + Nc1ccc(C#CCN(C(=O)Cc2ncc(C(F)(F)F)cc2C(F)(F)F)c2ccc(F)cc2)nn1, the viability, T/C was 71.3%.

As to `COc1cc2cc(C(=O)CCC(=O)O)sc2cc1OC` + Nc1ccc(C#CCN(C(=O)Cc2ncc(C(F)(F)F)cc2C(F)(F)F)c2ccc(F)cc2)nn1, the viability, T/C is 104%.

In the case of `O=C(Nc1ccc(O)c(NS(=O)(=O)c2ccc(F)cc2)c1)c1ccc(-c2ccccc2)cc1` + Nc1ccc(C#CCN(C(=O)Cc2ncc(C(F)(F)F)cc2C(F)(F)F)c2ccc(F)cc2)nn1, the viability, T/C is 101%.

The same assay, now with this note: second compound 3.16 µM; first compound 3.16 µM; hits give low values.
`C#Cc1c(F)ccc2cc(O)cc(-c3ncc4c(N5CC6CCC(C5)N6)nc(OCC56CCCN5CC(F)C6)nc4c3F)c12` (stereo unspecified) + Nc1ccc(C#CCN(C(=O)Cc2ncc(C(F)(F)F)cc2C(F)(F)F)c2ccc(F)cc2)nn1: the viability, T/C was 103%.

As to `CC1COCCN1c1cc(C2(O)CC3CCC(C2)O3)c2cnn(-c3ccn[nH]3)c2n1` (stereo unspecified) + Nc1ccc(C#CCN(C(=O)Cc2ncc(C(F)(F)F)cc2C(F)(F)F)c2ccc(F)cc2)nn1, the viability, T/C is 3.26%.

`CCc1cc2c(N3CCc4c(cc(Cn5ccnc5)cc4-c4cn(C)nc4C(F)(F)F)C3=O)cc(C)nc2c(OC)n1` + Nc1ccc(C#CCN(C(=O)Cc2ncc(C(F)(F)F)cc2C(F)(F)F)c2ccc(F)cc2)nn1: the viability, T/C was 58.7%.

For `COc1cc2cc(C(=O)CCC(=O)O)sc2cc1OC` + Nc1ccc(C#CCN(C(=O)Cc2ncc(C(F)(F)F)cc2C(F)(F)F)c2ccc(F)cc2)nn1, the viability, T/C is 94.9%.

As for `O=C(Nc1ccc(O)c(NS(=O)(=O)c2ccc(F)cc2)c1)c1ccc(-c2ccccc2)cc1` + Nc1ccc(C#CCN(C(=O)Cc2ncc(C(F)(F)F)cc2C(F)(F)F)c2ccc(F)cc2)nn1, the viability, T/C was 97.1%.

The assay is the same for the next values; noted with them: second compound 3.16 µM; first compound 10 µM; hits give low values.
As to `C#Cc1c(F)ccc2cc(O)cc(-c3ncc4c(N5CC6CCC(C5)N6)nc(OCC56CCCN5CC(F)C6)nc4c3F)c12` (stereo unspecified) + Nc1ccc(C#CCN(C(=O)Cc2ncc(C(F)(F)F)cc2C(F)(F)F)c2ccc(F)cc2)nn1, the viability, T/C was 96.8%.

Take `CC1COCCN1c1cc(C2(O)CC3CCC(C2)O3)c2cnn(-c3ccn[nH]3)c2n1` (stereo unspecified) + Nc1ccc(C#CCN(C(=O)Cc2ncc(C(F)(F)F)cc2C(F)(F)F)c2ccc(F)cc2)nn1: the viability, T/C is 2.52%.

Take `CCc1cc2c(N3CCc4c(cc(Cn5ccnc5)cc4-c4cn(C)nc4C(F)(F)F)C3=O)cc(C)nc2c(OC)n1` + Nc1ccc(C#CCN(C(=O)Cc2ncc(C(F)(F)F)cc2C(F)(F)F)c2ccc(F)cc2)nn1: the viability, T/C is 46.7%.

Consider `COc1cc2cc(C(=O)CCC(=O)O)sc2cc1OC` + Nc1ccc(C#CCN(C(=O)Cc2ncc(C(F)(F)F)cc2C(F)(F)F)c2ccc(F)cc2)nn1, for which the viability, T/C is 99.8%.

Turning to `O=C(Nc1ccc(O)c(NS(=O)(=O)c2ccc(F)cc2)c1)c1ccc(-c2ccccc2)cc1` + Nc1ccc(C#CCN(C(=O)Cc2ncc(C(F)(F)F)cc2C(F)(F)F)c2ccc(F)cc2)nn1, the viability, T/C is 106%.

Still in this assay, the particulars now being: second compound 10 µM; first compound 0.0316 µM; hits give low values.
Consider `C#Cc1c(F)ccc2cc(O)cc(-c3ncc4c(N5CC6CCC(C5)N6)nc(OCC56CCCN5CC(F)C6)nc4c3F)c12` (stereo unspecified) + Nc1ccc(C#CCN(C(=O)Cc2ncc(C(F)(F)F)cc2C(F)(F)F)c2ccc(F)cc2)nn1, for which the viability, T/C was 93.9%.

Consider `CC1COCCN1c1cc(C2(O)CC3CCC(C2)O3)c2cnn(-c3ccn[nH]3)c2n1` (stereo unspecified) + Nc1ccc(C#CCN(C(=O)Cc2ncc(C(F)(F)F)cc2C(F)(F)F)c2ccc(F)cc2)nn1, for which the viability, T/C was 83.4%.

As to `CCc1cc2c(N3CCc4c(cc(Cn5ccnc5)cc4-c4cn(C)nc4C(F)(F)F)C3=O)cc(C)nc2c(OC)n1` + Nc1ccc(C#CCN(C(=O)Cc2ncc(C(F)(F)F)cc2C(F)(F)F)c2ccc(F)cc2)nn1, the viability, T/C was 104%.
